In ChEMBL document CHEMBL1156829 (Proc Natl Acad Sci U S A, 2008):

Assays:
[1] = NOVARTIS: Cytotoxicity against human hepatocellular carcinoma cell line (Huh7); format: toxicity, cell-based, Huh-7; details: Huh7 cells (hepatocellular carcinoma cell line)
Plasmodium falciparum [2] = assay: NOVARTIS: Inhibition of Plasmodium falciparum 3D7 (drug-susceptible) proliferation in erythrocyte-based infection assay; format: functional, organism-based
Plasmodium falciparum [3] = assay: NOVARTIS: Inhibition of Plasmodium falciparum W2 (drug-resistant) proliferation in erythrocyte-based infection assay; format: functional, organism-based; details: read-out: EC50

| SMILES | CC50 [1] [nM] | EC50 (Plasmodium falciparum [2]; Plasmodium falciparum, 3D7) [nM] | EC50 (Plasmodium falciparum [3]; Plasmodium falciparum, W2) [nM] | EC50 (Plasmodium falciparum [2]) [nM] | EC50 (Plasmodium falciparum [3]) [nM] |
| --- | --- | --- | --- | --- | --- |
| COc1cc(OC)cc(C(=O)Nc2cc(C(=O)N3CCC(Cc4ccccc4)CC3)ccc2N2CC3CC(C2)c2cccc(=O)n2C3)c1 (configuration not stated) | 50300 | 1870 | 548 |  |  |
| O=C(Nc1ccc2c(c1)S(=O)(=O)c1cc(NC(=O)c3cccs3)ccc1-2)c1cccs1 | > 10000 | 1110 | > 1250 |  |  |
| OC1(c2ccc3ccccc3c2)c2c(c3ccccc3c3ccccc23)C2=NCCN21 (configuration not stated) | > 10000 | 252 | 281 |  |  |
| Cc1nc(N2CCC(C)CC2)c2c(C)c(C(=O)Nc3ccc(C(F)(F)F)cc3)sc2n1 | > 100000 | > 12500 | 562 |  |  |
| CC(C)(C)c1nn(-c2ccc(Cl)cc2)c2[nH]c(=O)c(CNCc3ccccc3)cc12 | > 100000 | 731 | 539 |  |  |
| CCOC(=O)c1ccc(NC(=O)c2cc(-c3ccccc3)nc3ccc(C)cc23)cc1 | > 100000 | > 12500 | 2100 |  |  |
| COc1ccccc1N1CCN([C@@H]2CCN(Cc3cccnc3)C[C@@H]2CCC(=O)N2CCCC2)CC1 | > 10000 | 1080 | 810 |  |  |
| CCC(=O)c1c(C)n(-c2ccc(Br)cc2)c2ccc(O)cc12 | > 10000 | > 769 | 1140 |  |  |
| COCCNC(=O)c1ccc2c(=O)n(Cc3ccc4c(c3)OCO4)c(=S)[nH]c2c1 | > 10000 | > 533 | 943 |  |  |
| Fc1ccccc1CCNc1ncnc2c1[nH]c1ccccc12 | 14300 | 165 | 150 |  |  |
| Cc1c(C(=O)N2CCC(C)CC2)sc2ncn(CC(=O)N3CCN(c4ccccn4)CC3)c(=O)c12 | > 10000 | > 1250 | 266 |  |  |
| COc1ccc(C(=O)C[n+]2ccc(N)c(C)c2C)cc1 | > 10000 | 438 | > 665 |  |  |
| O=C1C(Nc2ccc(F)cc2)=C(N2CCCCC2)C(=O)c2ccccc21 | 36800 | 335 | 319 |  |  |
| CCN1CCN(CCCNC(=S)Nc2ccc3nc(N4CCCC4)cc(C)c3c2)CC1 | 44200 | 256 | 773 |  |  |
| CCOc1ccc(N=C2NC(=O)SC2=C2C(=O)Nc3ccc(Br)cc32)cc1 | > 100000 | > 12500 | 4910 |  |  |
| CCCCCN1/C(=C\C=C\c2n(CCCCC)c3cc(Cl)c(Cl)cc3[n+]2CC)N(CC)c2cc(Cl)c(Cl)cc21 | > 10000 | > 1300 | > 1060 |  |  |
| COc1ccc(/C=C/C(=O)Nc2ccc3nc(N4CCN(C)CC4)cc(C)c3c2)cc1OC | > 10000 | 872 | > 1250 |  |  |
| COc1cc(/C=C(\C#N)c2nc3ccccc3[nH]2)ccc1OCc1ccc(C)cc1 | > 10000 | 1050 | 1470 |  |  |
| CC(Oc1ccc(Cl)cc1Cl)c1nc(-c2ccc(NC(=O)c3ccco3)cc2)no1 (configuration not stated) | 35600 | 313 | 551 |  |  |
| O=C(Cc1ccc(F)cc1Cl)N1CCN(c2cccc3c2C(=O)N(Cc2ccccn2)C3=O)CC1 | > 10000 | > 1250 | > 1170 |  |  |
| CCCC[n+]1c(C=C2C=Cc3ccccc3N2CC)sc2ccccc21 | > 10000 |  |  | 724 | 694 |
| CCc1ccc2c(c1)C(c1ccncc1)=NNC(c1ccncc1)=N2 | > 10000 | 887 | > 1300 |  |  |
| CCN(CC)c1ccc(N=Cc2ccccc2[N+](=O)[O-])cc1 | 27700 | 571 | 410 |  |  |

| SMILES | CC50 [1] [nM] | EC50 (Plasmodium falciparum [2]; Plasmodium falciparum, 3D7) [nM] | EC50 (Plasmodium falciparum [3]; Plasmodium falciparum, W2) [nM] | EC50 (Plasmodium falciparum [2]) [nM] | EC50 (Plasmodium falciparum [3]) [nM] |
| --- | --- | --- | --- | --- | --- |
| COc1ccc(CCNc2nc(NCCCn3ccnc3)ncc2C(=O)NCc2ccccc2)cc1OC | > 10000 | 1000 | > 1250 |  |  |
| CC(C)(C)C1CCc2[nH]c3ccccc3c(=O)c2C1 (configuration not stated) | > 100000 | 852 | 976 |  |  |
| Cc1ccc(-c2noc(C3CCN(C(=O)Nc4ccc(C#N)cc4)CC3)n2)o1 | > 100000 | 1300 | 1260 |  |  |
| Oc1ccc(-c2cncc(NCc3cccc(O)c3)c2)cc1 | > 10000 | 626 | 1250 |  |  |
| CN(Cc1ccccc1)C(=O)CSc1nc(NCc2ccccc2)c2ccccc2n1 | > 100000 | > 3030 | > 12500 |  |  |
| Cn1nc(C(=O)NCc2ccc(F)cc2)c2c1CCC(N1CCC(CO)CC1)C2 (configuration not stated) | > 10000 | > 1250 | > 454 |  |  |
| Cn1nc(C(F)(F)F)c(C(=O)Nc2ccc(Cl)cc2)c1Sc1ccc(Cl)cc1 | 34800 | 749 | 369 |  |  |
| COCCN(Cc1cc2ccc(F)cc2nc1N1CCCCCC1)C(=O)c1ccoc1 | > 100000 | 5200 | 1110 |  |  |
| O[C@@H]1[C@H]2c3cc4c(cc3CN3CCC(=C[C@@H]1O)[C@H]23)OCO4 | > 10000 | 46.5 | 361 |  |  |
| Cc1ccc(-c2cc(C(F)(F)F)n3ncc(C(=O)Nc4cc(Cl)ccc4O)c3n2)cc1 | > 100000 | 1880 | 1430 |  |  |
| O=C(Cn1c2ccccc2c(=O)c2cc([N+](=O)[O-])ccc21)Nc1ccc(F)c(Cl)c1 | > 100000 | > 12500 | 5670 |  |  |
| Cc1nc2ccc(Br)cc2c(O)c1CC(C)C | > 100000 | 2730 | 2530 |  |  |
| CC(=O)NC1=NN(C(C)=O)C(C)(c2ccc([N+](=O)[O-])cc2)S1 (configuration not stated) | > 100000 | 497 | 132 |  |  |
| O=C(Nc1ccc(Oc2cccnc2)cc1)C1CCN(Cc2cc3ccccc3o2)CC1 | > 100000 | 367 | 1510 |  |  |
| COc1cc(NC(=O)Cc2ccccc2OC)cc(OC)c1 | > 10000 | > 1690 | > 386 |  |  |
| CC(C)NCC(O)c1ccc2ccccc2c1 (configuration not stated) [PRONETALOL] | 13100 | 455 | 366 |  |  |
| CCOC(=O)c1cnc2ccc(Cl)cc2c1NCCCN(C)C | 48200 | 826 | 135 |  |  |
| C1CCC(NP2(NC3CCCCC3)=NP(NC3CCCCC3)(NC3CCCCC3)=NP(NC3CCCCC3)(NC3CCCCC3)=N2)CC1 | 41400 | 6610 | 3150 |  |  |
| Cc1ccccc1NC(=O)N(CCCNC(=O)CCl)c1ccccc1 | > 10000 | > 442 | 1770 |  |  |
| CCCCN(CCCC)S(=O)(=O)c1cc(Br)cc2c1N(C(C)=O)CC2 | > 100000 | 3290 | 1090 |  |  |
| COc1ccc(N2CCN(C(CNC(=O)CC(C)C)c3ccco3)CC2)cc1 (configuration not stated) | > 100000 | 6690 | 767 |  |  |
| Cc1ccccc1Cc1c(C)nc2c(C#N)c(C)nn2c1C | > 100000 | 282 | 273 |  |  |
| CCCCCCOc1ccc(NC(=O)c2ccco2)cc1 | > 10000 | 1390 | 1200 |  |  |

| SMILES | CC50 [1] [nM] | EC50 (Plasmodium falciparum [2]; Plasmodium falciparum, 3D7) [nM] | EC50 (Plasmodium falciparum [3]; Plasmodium falciparum, W2) [nM] | EC50 (Plasmodium falciparum [2]) [nM] | EC50 (Plasmodium falciparum [3]) [nM] |
| --- | --- | --- | --- | --- | --- |
| O=C1c2cc([N+](=O)[O-])ccc2-n2c1nc1ccccc1c2=O | > 10000 | 148 | 100 |  |  |
| S=C(NN=Cc1ccccn1)NC1CC2CC1C1C=CCC21 (configuration not stated) | > 1140 | 123 | 109 |  |  |
| CN(CCCNc1ccnc2cc(Cl)ccc12)S(=O)(=O)c1cc(Cl)ccc1Cl | > 12200 | 398 | 251 |  |  |
| COc1ccccc1Nc1nc(NCC2CCCO2)c2ccccc2n1 (configuration not stated) | 29400 | 1040 | 1570 |  |  |
| Oc1ccccc1Nc1nc(NC2CCCC2)c2ccccc2n1 | 16700 | 530 | 877 |  |  |
| O=C(Nc1ccc(NC(=O)c2ccc(C3=NCCCN3)cc2)cc1)Nc1ccc(C2=NCCCN2)cc1 | > 10000 | 115 | 148 |  |  |
| O=c1c2sccc2nc(SCc2cccc([N+](=O)[O-])c2)n1C1CC1 | > 10000 | 1250 | > 1520 |  |  |
| O=C1Nc2ccccc2C1=Nc1ccccc1NS(=O)(=O)c1ccc2ccccc2c1 | > 10000 | > 1250 | > 857 |  |  |
| COc1ccc(CC(=O)Nc2ccc(S(=O)(=O)N3CCCCCC3)cc2)cc1 | > 100000 | > 12500 | 9690 |  |  |
| Cc1ccc2nc(C)cc(NCCCN(C)C)c2c1 | > 3620 | 410 | 824 |  |  |
| CCOC(=O)C[n+]1cc(CC)sc1N | > 10000 | > 1070 | > 1250 |  |  |
| O=C1C(NC2CCCC2)=C(N2CCCCC2)C(=O)c2ccccc21 | 10100 | 22.4 | 34.2 |  |  |
| CC(C)Cc1ccc(C=CC(=O)NC2CC2)cc1 | > 100000 | 1150 | 1470 |  |  |
| Nc1nc(NCC2CCC(CNS(=O)(=O)c3cccc4ccccc34)CC2)nc2ccccc12 (configuration not stated) | > 10000 | 684 | 571 |  |  |
| Cc1ccc(-c2cc(C(F)(F)F)n3nc(C(=O)Nc4cccc(Cl)c4Cl)cc3n2)cc1 | > 10000 | > 1250 | > 321 |  |  |
| CCn1c(C)cc(/C=C2\C(=O)NC(=O)N(c3cccc(Cl)c3)C2=O)c1C | > 10000 | > 674 | 679 |  |  |
| CN(c1ncnc2sc3c(c12)CCCC3)C1CCCCC1 | > 10000 | > 921 | < 37.4 |  |  |
| O=C(CN1CCCC1)Nc1c2c(nc3c1CCC3)CCC2 | > 10000 | > 1250 | > 462 |  |  |
| CCOC(=O)c1c(N)n(-c2ccc(CC)cc2)c2nc3ccccc3nc12 | > 100000 | 797 | 823 |  |  |
| COc1ccc2nc(C)cc(Nc3ccc(Oc4ccc5ccccc5c4)c(Cl)c3)c2c1 | 7070 | 166 | 206 |  |  |
| O=C(CN(CCN1CCOCC1)S(=O)(=O)c1ccccn1)N1CCN(C(c2ccccc2)c2ccccc2)CC1 | > 28800 | > 12500 | 4440 |  |  |
| CCOP1(=O)COc2ccccc2OC1 | > 10000 | > 1140 | > 1380 |  |  |
| CC(C)CNC(=O)c1cnc(NCCCN2CCCCC2C)nc1NCC1CCCCC1 (configuration not stated) | > 10000 | 434 | 1170 |  |  |
